# Experimental data from patent publication US7589077B2, “Antiviral nucleosides” (priority 2001, dated 2009).
# Where two headings read alike, the source gives them in different places.
# How the values were obtained:
# [1] = Cell cytotoxicity in Vero cells; assay type: cell-based; settings: African green monkey, Vero cells
# Method: (§1) The compounds were assayed for a) their ability to inhibit DHBV DNA replication in duck hepatocytes, b) their ability to inhibit HBV DNA replication in HepG2 2.2.15 cells, c) the cell cytotoxicity in Vero cells, the cell viability in HFF cells, d) the cell proliferation in HFF cells, and e) the T cell proliferation (purified T cells, PHA stimulated). 3-TC was used as a control.
# HSV-1 (KOS) HSV-TK+ = HSV-1 (KOS) HSV-TK+ antiviral assay; assay type: cell-based, Herpes simplex virus type-1; settings: Table 4
# Method: (§2) Cytopathic effect (CPE) inhibition assays for HSV-1, HSV-2, HCMV and VZV were performed as follows: Low passage human foreskin fibroblasts (HFF) cells were seeded into 96 well tissue culture plates 24 h prior to use at a cell concentration of 2.5×10^4 cells per mL in 0.1 mL of minimal essential medium (MEM) supplemented with 10% fetal bovine serum (FBS). The cells were then incubated for 24 h at 37° C. in a CO2 incubator. After incubation, the medium was removed and 100 μL of MEM containing 2% FBS was added to all but the first row. In the first row, 125 μL of experimental drug was added in triplicate wells. Medium alone was added to both cell and virus control […]. After incubation, the medium was removed and 100 μl of MEM containing 2% FBS was added to all but the first row. Medium alone was added to both cell and virus control wells. 125 μl of Experimental drug was added in triplicate wells. The drug in the first row of wells was then diluted serially 1:5 throughout the remaining wells by transferring 25 μL using the Cetus Liquid Handling Machine. After dilution of drugs, 100 μL of the appropriate virus concentration was added to each well, excluding the cell control wells which received 100 μL of MEM. For HSY-1 and HSV-2 assays, the virus concentration utilized was 1000 PFU's per well. For CMV and VZV assays, the virus concentration added was 2500 PFU's per well. The plates were then incubated at 37° C. in a CO2 incubator for 3 days for HSV-1 and HSV-2, 10 days for VZV, or 14 days for CMV. After the incubation period, media was aspirated and the cells stained with a 0.1% crystal violet solution for 30 min. The stain was then removed and the plates were allowed to dry 24 h and then read on a Skatron Plate Reader at 620 nm.
# HSV-1 (KOSSB) HSV-TK− = experiment: microbe, parasite or virus in culture; assay type: cell-based, Herpes simplex virus type-1; settings: for HSV-1 (KOSSB) HSV-TK− EC50: Table 4
# Method: as §2, with “The” for “Cytopathic effect (CPE) inhibition assays for HSV-1, HSV-2, HCMV and VZV were performed as follows: Low passage human foreskin fibroblasts (HFF) cells were seeded into 96 well tissue culture plates 24 h prior to use at a cell concentration of 2.5×10^4 cells per mL in 0.1 mL of minimal essential medium (MEM) supplemented with 10% fetal bovine serum (FBS). The”
# HSV-1 (E-377) = experiment: CPE inhibition assay HSV-1 (E-377) in HFF cells; assay type: cell-based, Herpes simplex virus type-1; settings: for EC50: Human alphaherpesvirus 1, HFF
# Method: as §2
# HSV-2 (MS) = experiment: CPE inhibition assay HSV-2 (MS) in HFF cells; assay type: cell-based, Herpes simplex virus type-2; settings: for EC50: Human alphaherpesvirus 2, HFF
# Method: as §2
# VZV (Ellen) = experiment: CPE inhibition assay VZV (Ellen) in HFF cells; assay type: cell-based, varicella zoster virus; settings: for EC50: Human alphaherpesvirus 3, HFF
# Method: as §2
# Epstein-Barr Virus (EBV) = experiment: EBV immunofluorescence assay in DAUDI cells (P3HR-1 strain); assay type: cell-based; settings: for EC90: human gammaherpesvirus 4; for EBV EC50: Table 4
# Method: The immunofluorescence assay, using monoclonal antibodies, for Epstein-Barr Virus (EBV) was performed as follows: DAUDI cells were infected with the P3HR-1 strain of EBV and the test drug was added after adsorption (45 min. at 37° C.) and washing of the cell cultures. These cultures were then incubated for 2 days in complete medium to allow viral gene expression. Following the 48 h incubation period, the number of cells in each sample were counted and smears were made. Monoclonal antibodies to the different early antigen (EA) components and VCA were than added to the cells, incubated and washed. This was followed by the addition of a fluorescein conjugated rabbit anti mouse Ig antibodies. The number of fluorescence positive cells in the smears were counted and the total number of cells in the cultures positive for EA or VCA were then calculated and compared.
# [2] = test system: duck hepatitis B virus (DHBV); experiment: DHBV DNA replication in primary duck hepatocytes (dot blot hybridization); assay type: cell-based; settings: for inhibition at 10 µg/mL: read-out: % Inh. of DHBV DNA in duck hepatocytes @ 10 μg/ml
# Method: A series of compounds were synthesized and assayed for activity against duck hepatitis B virus (DHBV). […] Test compounds were added to the hepatocyte cultures on day 2 and maintained in culture with media changed every second day until day 12. Cell were harvested at day 14 and lysed with buffer containing 1% SDS. DNA was isolated from the lysate and dot blot hybridization was performed using a DHBV (32P) DNA probe. […]
# as §1
# human HBV = experiment: HBV DNA replication in HepG2 2.2.15 cells; assay type: cell-based, hepatitis B virus; settings: for EC50: Table 3a, read-out: % Inhibition of human HBV DNA replication in HepG2 2.2.15 cells EC50
# Method: The compounds were assayed for a) their ability to inhibit DHBV DNA replication in duck hepatocytes, b) their ability to inhibit HBV DNA replication in HepG2 2.2.15 cells, c) the cell cytotoxicity in Vero cells, the cell viability in HFF cells, d) the cell proliferation in HFF cells, and e) the T cell proliferation (purified T cells, PHA stimulated). 3-TC was used as a control. Additional compounds described below in the Preparative Examples section were also tested, and the results are shown in Tables 2-4 below. The reference numbers for the compounds are found in the Preparative Examples.
# HCMV (AD169) = experiment: CPE inhibition assay HCMV (AD169) in HFF cells; assay type: cell-based, human cytomegalovirus; settings: for EC50: Human betaherpesvirus 5, AD169, HFF
# Method: as §2
# [3] = Duck hepatitis B virus, Hepatocyte
# [4] = Duck hepatitis B virus, Hepatocyte, Table 2, value in brackets, read-out: DHBV DNA in duck hepatocytes [EC50, μg/ml]
molecule,measurement,setting,value
"Nc1nc2c(ncn2COCCO)c(=O)[nH]1 [Acyclovir, acyclovir, reference compound]",CC50,[1]; Table 3b,> 400 µM
same,EC50,HSV-1 (KOS) HSV-TK+; Human alphaherpesvirus 1,< 1 µg/mL
same,EC50,"HSV-1 (KOSSB) HSV-TK−; Human alphaherpesvirus 1, read-out: HSV-1 (KOSSB) HSV-TK− EC50, μg/ml",> 100 µg/mL
same,EC50,HSV-1 (E-377); Table 3b,3.08 µM
same,EC50,HSV-1 (E-377); Table 4,0.2 µg/mL
same,EC50,HSV-2 (MS); Table 3b,6.16 µM
same,EC50,HSV-2 (MS); Table 4,0.6 µg/mL
same,EC50,VZV (Ellen); Table 2,0.6 µg/mL
same,EC50,VZV (Ellen); Table 3a,0.03 µg/mL
same,EC50,VZV (Ellen); Table 3b,3.96 µM
same,EC50,VZV (Ellen); Table 4,0.08 µg/mL
same,EBV EC90,"Epstein-Barr Virus (EBV); Table 4, in parentheses",> 50 µg/mL
same,EBV EC90,"Epstein-Barr Virus (EBV); Table 5, in parentheses",(EC90 = >50) μg/ml
same,EC50,"Epstein-Barr Virus (EBV); human gammaherpesvirus 4, Table 3a, read-out: EBV EC50",1 µg/mL
same,EC50,"Epstein-Barr Virus (EBV); human gammaherpesvirus 4, Table 4, read-out: EBV EC50",1.4 µg/mL
same,EC50,"Epstein-Barr Virus (EBV); human gammaherpesvirus 4, Table 5, read-out: EBV EC50",1 µg/mL
same,EC50,"Epstein-Barr Virus (EBV); human gammaherpesvirus 4, running text, read-out: anti EBV activity EC50",1 µg/mL
same,EC90,"Epstein-Barr Virus (EBV); Table 3a, in parentheses, read-out: EBV EC90",> 50 µg/mL
same,EC90,Epstein-Barr Virus (EBV); read-out: anti EBV activity EC90,> 50 µg/mL
"C=Cc1cn(COC(CO)CO)c(=O)[nH]c1=O [Compound 9a, 1-[(2-Hydroxy-1-(hydroxymethyl)ethoxy)methyl]-5-vinyluracil]",inhibition at 10 µg/mL,[2]; [3],82%
same,EC50,[2]; [4],0.3 to 1 µg/mL
same,CC50,[1]; Table 2,> 100 µg/mL
"O=c1[nH]c(=O)n(CCC(CO)CO)cc1I [Compound 19, 1-[4-Hydroxy-3-(hydroxymethyl)-1-butyl]-5-iodouracil]",inhibition at 10 µg/mL,[2]; [3],65.2%
same,inhibition at 0.01 µg/mL,"human HBV; Hepatitis B virus, HepG2 2.2.15, read-out: % Inh. of human HBV DNA replication in HepG2 2.2.15 cells @ 0.01 μg/ml (right)",18.1%
same,inhibition at 0.1 µg/mL,"human HBV; Hepatitis B virus, HepG2 2.2.15, read-out: % Inh. of human HBV DNA replication in HepG2 2.2.15 cells @ 0.1 μg/ml (left)",69.1%
same,CC50,[1]; Table 2,> 200 µg/mL
"C=Cc1cn(CCC(CO)CO)c(=O)[nH]c1=O [Compound 20, 1-[4-Hydroxy-3-(hydroxymethyl)-1-butyl]-5-vinyluracil]",inhibition at 10 µg/mL,[2]; [3],80%
same,EC50,[2]; [4],1 to 3 µg/mL
same,CC50,[1]; Table 2,> 100 µg/mL
"Nc1nc(O)c2ncn(COC(CO)CO)c2n1 [Gancyclovir, ganciclovir, reference compound]",EC50,VZV (Ellen); Table 4,0.1 µg/mL
same,EC50,HCMV (AD169); Table 2,0.06 µg/mL
same,EC50,"HCMV (AD169); Table 4, read-out: HCMV (AD-169) EC50",0.1 µg/mL
"[N-]=[N+]=NC1C(Cl)C(=O)NC(=O)N1[C@H]1C[C@H](O)[C@@H](CO)O1 (stereo partly shown) [RB-10, 5-Chloro-6-azido-5,6-dihydro-2′-deoxyuridine]",CC50,[1]; Table 3b,> 327 µM
same,EC50,HSV-1 (E-377); Table 3b,0.33 µM
same,EC50,HSV-2 (MS); Table 3b,1.6 µM
same,EC50,VZV (Ellen); Table 3b,9.8 µM
"(5R,6R) 5-fluoro-O^6-5′-cyclo-5,6-dihydro-2′-deoxythymidine [Compound R-25]",HSV-1 (KOS) HSV-TK+ EC50,HSV-1 (KOS) HSV-TK+,>25 µg/mL
same,HSV-1 (KOSSB) HSV-TK− EC50,HSV-1 (KOSSB) HSV-TK−,>50 µg/mL
same,"HSV-1 (E-377) EC50, μg/ml",HSV-1 (E-377); Table 4,>100 μg/ml
same,HSV-2 (MS) EC50,HSV-2 (MS); Table 4,>100 µg/mL
same,VZV (Ellen) EC50,VZV (Ellen); Table 4,>100 µg/mL
same,HCMV (AD-169) EC50,HCMV (AD169); Table 4,>100 µg/mL
same,EBV EC50,Epstein-Barr Virus (EBV),0.6 to 3.0 µg/mL
"(5R,6S) 5-fluoro-O^6-5′-cyclo-5,6-dihydro-2′-deoxythymidine [Compound R-24]",HSV-1 (KOS) HSV-TK+ EC50,HSV-1 (KOS) HSV-TK+,>25 µg/mL
same,HSV-1 (KOSSB) HSV-TK− EC50,HSV-1 (KOSSB) HSV-TK−,>50 µg/mL
same,"HSV-1 (E-377) EC50, μg/ml",HSV-1 (E-377); Table 4,>100 μg/ml
same,HSV-2 (MS) EC50,HSV-2 (MS); Table 4,>100 µg/mL
same,VZV (Ellen) EC50,VZV (Ellen); Table 4,>100 µg/mL
same,HCMV (AD-169) EC50,HCMV (AD169); Table 4,>100 µg/mL
same,EBV EC50,Epstein-Barr Virus (EBV),0.6 to 2.8 µg/mL
same,EBV EC90,"Epstein-Barr Virus (EBV); Table 4, in parentheses",(EC90 = 3.8) μg/ml
"(5S,6R) 5-fluoro-O^6-5′-cyclo-5,6-dihydro-2′-deoxythymidine [Compound R-23]",HSV-1 (KOS) HSV-TK+ EC50,HSV-1 (KOS) HSV-TK+,>25 µg/mL
same,HSV-1 (KOSSB) HSV-TK− EC50,HSV-1 (KOSSB) HSV-TK−,>50 µg/mL
same,"HSV-1 (E-377) EC50, μg/ml",HSV-1 (E-377); Table 4,>100 μg/ml
same,HSV-2 (MS) EC50,HSV-2 (MS); Table 4,>100 µg/mL
same,VZV (Ellen) EC50,VZV (Ellen); Table 4,>100 µg/mL
same,HCMV (AD-169) EC50,HCMV (AD169); Table 4,>100 µg/mL
same,EBV EC50,Epstein-Barr Virus (EBV),0.1 to 1.4 µg/mL
same,EBV EC90,"Epstein-Barr Virus (EBV); Table 4, in parentheses",(EC90 = 7.3) μg/ml
"(5S,6S)5-Bromo-O^6-5′-cyclo-5,6-dihydro-5-ethyl-2′-deoxyuridine [Compound R-9]",HSV-1 (KOS) HSV-TK+ EC50,HSV-1 (KOS) HSV-TK+,1 to 5 µg/mL
same,HSV-1 (KOSSB) HSV-TK− EC50,HSV-1 (KOSSB) HSV-TK−,10 to 25 µg/mL
same,"HSV-1 (E-377) EC50, μg/ml",HSV-1 (E-377); Table 4,4.0 μg/ml
same,HSV-2 (MS) EC50,HSV-2 (MS); Table 4,10 µg/mL
"[(+)(6R)]-5-bromo-6-ethoxy-5,6dihydro-3′-fluoro-2′,3′-dideoxyuridine [RB-5]",% Inhibition of DHBV DNA in duck hepatocytes EC50 μM,[2]; Table 3a,not active
same,EC50,human HBV,5 µM
"[(−)-(6S)]-5-bromo-6-ethoxy-5,6-dihydro-3′-fluoro-2′,3′-dideoxyuridine [RB-4]",EC50,"[2]; Table 3a, read-out: % Inhibition of DHBV DNA in duck hepatocytes EC50",> 10 µM
same,EC50,human HBV,3 µM
